In the NIST ThermoML archive (doi:10.1016/j.jct.2016.07.040):

Conditions: Crystal; for vapor or sublimation pressure: Calculated from knudsen effusion weight loss

[Np+4].[O-2].[O-2] [neptunium(IV) oxide]
Conditions	mass density [kg/m3]
295 K, 101.33 kPa, X-ray diffraction	11140

Conditions	vapor or sublimation pressure [kPa]
2054.9 K	3.295e-05
2056.2 K	3.366e-05
2057.9 K	3.51e-05
2060.1 K	3.662e-05
2062.3 K	3.796e-05
2064.8 K	3.874e-05
2067.1 K	4.025e-05
2069.1 K	4.246e-05
2071.4 K	4.393e-05
2073.9 K	4.623e-05
2076.6 K	4.712e-05
2078.6 K	4.956e-05
2081.3 K	5.123e-05
2083.9 K	5.383e-05
2086.1 K	5.495e-05
2088.4 K	5.784e-05
2090.9 K	5.955e-05
2093.2 K	6.187e-05
2095.7 K	6.433e-05
2098.6 K	6.692e-05
2100.8 K	6.877e-05
2103.4 K	7.176e-05
2105.9 K	7.462e-05
2108.1 K	7.729e-05
2111.2 K	8.054e-05
2113.1 K	8.434e-05
2115.9 K	8.748e-05
2118.1 K	9.035e-05
2120.3 K	9.314e-05
2122.9 K	9.644e-05
2125.2 K	9.94e-05
2127.9 K	0.0001045
2130.5 K	0.0001097
2132.7 K	0.0001123
2135.3 K	0.0001157
2137.4 K	0.0001217
2139.9 K	0.0001239
2142.7 K	0.0001288
2145.2 K	0.0001332
2147.5 K	0.0001386
2149.8 K	0.0001358
2150.2 K	0.0001442
2151.3 K	0.0001375
2152.2 K	0.0001394
2152.6 K	0.0001498
2152.8 K	0.0001433
2154.4 K	0.0001447
2154.9 K	0.0001542
2155.9 K	0.0001583
2156 K	0.0001482
2157.3 K	0.0001517
2158.4 K	0.0001543
2160.3 K	0.0001598
2161.7 K	0.0001597
2162.9 K	0.0001642
2164.5 K	0.0001713
2166.2 K	0.0001748
2167.4 K	0.000178
2168.5 K	0.0001787
2170.6 K	0.0001874
2172.1 K	0.0001888
2173.8 K	0.0001909
2175.3 K	0.0001994
2176.6 K	0.0002036
2178.6 K	0.0002068
2179.8 K	0.0002135
2181 K	0.0002199
2183.2 K	0.0002228
2184.5 K	0.0002278
2186.2 K	0.0002338
2187.7 K	0.0002364
2189.2 K	0.0002417
2191.4 K	0.0002525
2193.1 K	0.0002543
2194.3 K	0.0002622
2196 K	0.0002656
2197.8 K	0.0002726
2199.7 K	0.0002771
2200.8 K	0.0002867
2202.4 K	0.0002946
2204.7 K	0.0002992
2206.6 K	0.0003045
2207.4 K	0.0003104
2209.3 K	0.0003162
2211.2 K	0.0003286
2212.7 K	0.0003354
2214.4 K	0.0003408
2216.4 K	0.0003502
2218.1 K	0.0003597
2218.9 K	0.0003644
2220.7 K	0.0003741
2222.9 K	0.0003833
2224.6 K	0.0003931
2225.9 K	0.0004013
2227.7 K	0.000407
2229.2 K	0.0004206
2231 K	0.0004254
2232.9 K	0.0004344
2233.8 K	0.0004466
2235.8 K	0.0004515
2237.8 K	0.0004628
2239.3 K	0.0004711
2240.7 K	0.0004792
2242.2 K	0.0004974
2243.7 K	0.0005095
2245.8 K	0.0005148
2247.3 K	0.0005247
2249.2 K	0.00054
2250.6 K	0.0005507
2252.1 K	0.0005593
2254.2 K	0.0005708
2255.6 K	0.0005856
2257.4 K	0.0005944
2258.3 K	0.0006052
2258.7 K	0.0006098
2259.2 K	0.0006132
